# According to patent publication US20250154611A1, “SYSTEMS AND METHODS TO DETECT STEM CELL STRESS AND USES THEREOF” (Wayne State University, priority 2014, published 2025):
# How the values were obtained:
# [1] = molecular target: T1, AKT (Mus musculus, UniProt P31750); assay: phospho-AKT western blot in mESCs under 200 mM sorbitol; format: cell-based; settings: 200 mM; persisted through 1 hr
# T1 construct: endogenous in cells; host or cells: mESC-D3 (ATCC)
# Description: (§1) FIG. 14. […] Blots are representative of triplicate experiments. Phospho-proteins and their loading controls are grouped between black lines.
# (§2) FIG. 15. […] Blots are representative of triplicate experiments.
# (§3) Hyperosmotic activation of signaling enzymes. […] Zhong, 2010; Xie, 2011. […] To determine the kinetics of activation of these five kinases in the described system, mESCs were treated with 200 mM sorbitol for 1 hr. Expression levels of the activated (i.e., phosphorylated) enzymes were assayed by western blot analysis (FIG. 14), including phospho-p38MAPK, phospho-JNK, phospho-MEK1/2, and phospho-AKT (the downstream effector of PI3K signaling).
# (§4) Efficacy of enzyme inhibitors.
# [2] = system: JNK; assay: phospho-JNK western blot in mESCs under 200 mM sorbitol; format: cell-based, mouse; settings: persisted throughout 1 hr
# Description: as §1, §2, §3, §4
# [3] = system: Rex1-RFP mESCs; assay: Flow cytometry of Rex1-RFP reporter mESCs (bright, intermediate, dim subpopulations); format: cell-based, mouse; settings: 3 days; for Bright subpopulation / Dim subpopulation / Intermediate + Dim / Intermediate subpopulation: LIF+
# Description: . Rex1-RFP mESCs expressing Rex1 promoter reporter were cultured in 12-well plates until 30% confluent, treated with 0 mM, 200 mM, and 300 mM sorbitol for 3 days, trypsinized, and cell suspensions were assayed by flow cytometry. Arbitrary thresholds (vertical red lines) were drawn at 5×10^3 on the X-axis between the middle of the two peaks and at 2 standard deviations above the mean of the parental (before infection) dim population shown in the bottom panel. Areas in parental dim, intermediate dim, and bright were defined by the 2 vertical red lines and were quantified as pixels using Image J from data in (FIG. 25A) to give histograms in (FIG. 25B).
# FIGS. 26A and 26B. Viable Rex1 promoter reporter responds with stress treatment in a dose-dependent manner in flow cytometry assay. mESCs expressing Rex1 promoter reporter were cultured in 12-well plates till 30% confluence. Cells were then treated with 200-300 mM of sorbitol in 25 mM increments for 3 days. After trypsinization, the cell suspensions were subjected for flow cytometry assay. An arbitrary threshold was drawn at 5×10^3 on the x-axis and another near the low point between the bright peak and the dimmer peak to its left (FIG. 26A). […] Intermediate and bright groups were also defined by the two vertical red lines. Area sizes of the two peaks were quantified using Image J. The histogram bars (FIG. 26B) are derived by three independent experiments, one of which is shown in (FIG. 26A), errors bars showing s.e.m., One-way ANOVA was performed followed by Dunnett's post hoc test using 0 mM as reference for parental dim, intermediate dim, and bright separately.
# Flow cytometric analysis of mESCs expressing pluripotency reporters. Fluorescence determination by the plate reader reported an averaged biochemical result from a population of cells inside the tissue culture vessel. […] This time point was designated as time zero. The cells were then treated with different sorbitol concentrations for 1-3 days. At each time point, cells were trypsinized and re-suspended in ice-cold D-PBS for flow cytometry assay using an LSR Fortessa flow cytometer (BD biosciences) and the FACS Diva Software version 7.0 (BD biosciences). Non-stressed mESCs that express Oct4-copGFP and/or Rex1-mApple and the non-modified, parental mESCs were used to set up the parameters that define the fluorescent cells and non-fluorescent cells.
# From the histogram of FACS, two peaks are seen. The right peak represents the bright fluorescent potent ESCs. The left peak represents the dim fluorescent non-potent ESCs. An arbitrary vertical line is drawn here at the 5×10^3 position on the PE-A axis to separate the low potency ESCs. The peak areas were calculated using Image J by counting the area pixels.
# T1 sequence (P31750 whole entry): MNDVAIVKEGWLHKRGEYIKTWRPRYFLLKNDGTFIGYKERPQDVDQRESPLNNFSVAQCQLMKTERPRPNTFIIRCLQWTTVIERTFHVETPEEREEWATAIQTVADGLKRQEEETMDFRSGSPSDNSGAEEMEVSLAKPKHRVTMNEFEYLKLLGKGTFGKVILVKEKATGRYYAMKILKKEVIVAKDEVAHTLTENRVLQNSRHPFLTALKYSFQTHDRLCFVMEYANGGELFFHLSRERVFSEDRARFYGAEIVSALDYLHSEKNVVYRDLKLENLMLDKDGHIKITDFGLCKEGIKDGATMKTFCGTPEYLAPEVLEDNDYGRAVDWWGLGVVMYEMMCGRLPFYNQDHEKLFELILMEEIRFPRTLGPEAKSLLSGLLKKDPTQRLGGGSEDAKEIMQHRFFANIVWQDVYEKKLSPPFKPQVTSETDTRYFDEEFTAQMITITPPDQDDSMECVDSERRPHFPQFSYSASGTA
structure (smiles),measurement,setting,value
OC[C@@H](O)[C@@H](O)[C@H](O)[C@@H](O)CO [sorbitol],time of increased AKT activation,[1],20 to 30 min
same,time at which activated JNK was first detected,[2],20 min
same,decrease in high activity Rex1 subpopulation,[3]; 0 to 300 mM,20%
same,decrease in the bright group,[3]; 0 to 300 mM,21.5%
same,increase in parental dim ESCs,[3]; 0 to 300 mM,15.8%
same,increase in the low Rex1 activity subpopulation,[3]; 0 to 300 mM,2.8 fold
same,total change toward intensity decrease,[3]; 0 to 300 mM,40.4 % of cells
same,Bright subpopulation,[3]; 200 mM,77.1%
same,Dim subpopulation,[3]; 200 mM,12.2%
same,Intermediate + Dim,[3]; 200 mM,22.9%
same,Intermediate subpopulation,[3]; 200 mM,10.7%
same,Bright subpopulation,[3]; 225 mM,75.6%
same,Dim subpopulation,[3]; 225 mM,13.7%
same,Intermediate + Dim,[3]; 225 mM,24.4%
same,Intermediate subpopulation,[3]; 225 mM,10.7%
same,Bright subpopulation,[3]; 250 mM,72%
same,Dim subpopulation,[3]; 250 mM,16.6%
same,Intermediate + Dim,[3]; 250 mM,28%
same,Intermediate subpopulation,[3]; 250 mM,11.4%
same,Bright subpopulation,[3]; 275 mM,71.9%
same,Dim subpopulation,[3]; 275 mM,17.1%
same,Intermediate + Dim,[3]; 275 mM,28.1%
same,Intermediate subpopulation,[3]; 275 mM,11%
same,Bright subpopulation,[3]; 300 mM,61.8+/−3.7%
same,Dim subpopulation,[3]; 300 mM,24.4+/−2.9%
same,Intermediate + Dim,[3]; 300 mM,28.1%
same,Intermediate subpopulation,[3]; 300 mM,13.8+/−2.1%
same,Bright subpopulation,"[3]; 300 mM, listed as Sorbitol",61.8%
same,Dim subpopulation,"[3]; 300 mM, listed as Sorbitol",24.4%
same,Intermediate subpopulation,"[3]; 300 mM, listed as Sorbitol",13.8%
same,increase in intermediate dim ESCs,[3]; to 300 mM,3.1%
